How the values were obtained:
[1] = Antiradical activity assay (DPPH radical scavenging); conditions: DPPH in ethanol, 30 min in the dark at room temperature, absorbance 520 nm; mean [SD] of 2 experiments
Experimental: The radical scavenging activity of test compounds was measured as previously described using 2,2-diphenyl-1-picrylhydrazyl (DPPH) as a stable radical with slight modifications. Particular care was taken in the preparation of the control (DPPH reagent + ethanol as a diluent without test compounds). Controls with O.D. of 0.350-0.360 at 520 nm were deemed as acceptable to avoid variations in IC50 calculations. 1 mL of DPPH in ethanol ([…]) was mixed with 1 mL of the test compounds at the indicated concentrations or their diluent (ethanol). Each mixture was then shaken vigorously and held in the dark for 30 min at room temperature. The absorbance of DPPH at 520 nm was then measured. The radical scavenging activity was expressed in terms of % inhibition of DPPH absorbance: (1) % Inhibition=[(Acontrol−Atest)/(Acontrol)] ×100, where A control is the absorbance of the control (DPPH solution without test compound) and A test is the absorbance of the test sample (DPPH solution plus compound). Data are expressed as means ± SD of 2 independent experiments, each performed in triplicate (Table 1). IC50 values were calculated from a sigmoidal concentration-response curve fitting model with a variable slope on GraphPad Prism 5 software (GraphPad software, San Diego, California).
Radical scavenging activities of analogous cinnamoyl esters 8a–h, cinnamoyl amides 9a–h, caffeoyl esters 15a–h, and caffeoyl amides 16a–h were assayed using 2,2-diphenyl-1-picrylhydrazyl (DPPH) as a stable radical and are expressed as IC50 concentrations in Table 1.

5-LO [2] = molecular target: T1, 5-LO (Homo sapiens, UniProt P09917); test: 5-LO products biosynthesis assay in thapsigargin-stimulated human PMNL; format: cell-based; set-up: 5-LO is highly expressed in PMNL; endogenous in cells; host or cells: human PMNL from peripheral blood; conditions: stimulated human PMNL, 1 μM
T1 sequence (P09917 1-674): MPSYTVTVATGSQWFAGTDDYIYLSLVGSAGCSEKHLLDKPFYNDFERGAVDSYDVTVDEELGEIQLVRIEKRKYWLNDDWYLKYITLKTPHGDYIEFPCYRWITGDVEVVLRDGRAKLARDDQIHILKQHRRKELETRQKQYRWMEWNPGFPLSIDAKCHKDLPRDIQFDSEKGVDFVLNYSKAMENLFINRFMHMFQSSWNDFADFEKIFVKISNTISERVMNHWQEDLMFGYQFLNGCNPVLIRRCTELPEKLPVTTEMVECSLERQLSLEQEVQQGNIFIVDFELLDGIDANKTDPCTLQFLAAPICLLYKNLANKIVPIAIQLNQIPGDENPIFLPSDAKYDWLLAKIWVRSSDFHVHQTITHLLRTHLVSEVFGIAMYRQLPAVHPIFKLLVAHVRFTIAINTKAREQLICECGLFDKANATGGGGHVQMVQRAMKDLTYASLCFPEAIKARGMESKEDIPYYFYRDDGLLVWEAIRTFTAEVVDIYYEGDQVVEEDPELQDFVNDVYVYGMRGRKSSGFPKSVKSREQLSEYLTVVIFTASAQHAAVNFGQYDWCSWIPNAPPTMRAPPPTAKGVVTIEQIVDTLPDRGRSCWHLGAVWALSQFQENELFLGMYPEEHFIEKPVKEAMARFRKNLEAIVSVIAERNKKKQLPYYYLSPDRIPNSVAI
Experimental: Human PMNL were prepared from peripheral blood as described and were suspended in HBSS containing 1.6 mM CaCl2 (10^7 cells/mL) and preincubated with compounds for 5 min at 37°C in the presence of 1 U/mL of adenosine deaminase (Sigma-Aldrich, Oakville, ON, Canada). Cells were then stimulated for 15 min at 37°C with 1 μM thapsigargin (Sigma-Aldrich). Reactions were stopped by the addition of 0.5 volume of cold MeOH : CH3CN (1 : 1) and 50 ng of PGB2 as internal standard and samples were stored at −20°C until processing on octadecyl (C18) columns and RP-HPLC analysis as indicated above. Data are expressed as means ± SEM of 3 independent experiments, each performed in duplicate (Figures 4 and 5).
5-LO is highly expressed in PMNL and these cells are important producers of LTB4 [28, 32].

5-LO [3] = molecular target: T1, 5-LO; test: 5-LO products biosynthesis assay in whole HEK293 cells stably transfected with 5-LO and FLAP; format: cell-based; set-up: expressed in transfected cells; conditions: whole HEK293 cells, 1 μM
Description: HEK293 cells were cotransfected with a pcDNA3.1 vector expressing 5-LO and a pBUDCE4.1 vector expressing 5-LO activating protein (FLAP) using Polyfect reagent (QIAGEN, Mississauga, ON, Canada) according to the manufacturer's protocol. Stable transfections of HEK293 cells were obtained following cell culture in the presence of Geneticin and Zeocin (Invitrogen, Burlington, ON, Canada). The resulting stable double transfectants were propagated in culture and aliquots were frozen. Once thawed for a series of experiments, each aliquot of cells is cultured for a maximum of 6 weeks before being discarded.
For cell stimulation of 5-LO products, transfected HEK293 cells were collected following trypsinization, washed and the cell pellet was resuspended in Hank's balanced salt solution (HBSS) (Lonza, Walkersville, MD) containing 1.6 mM CaCl2 at a concentration of 5 × 10^5 cells mL^−1. Cells were preincubated with each compound at the indicated concentration for 5 min at 37°C. Cells were then stimulated for 15 minutes at 37°C with the addition of 10 μM calcium ionophore A23187 (Sigma-Aldrich, Oakville, ON, Canada) and 10 μM arachidonic acid (Cayman Chemical, Ann Arbor, MI). Stimulations were stopped and processed on RP-HPLC as described previously. Data are expressed as means ± SEM of 3 independent experiments, each performed in duplicate (Figures 2 and 3).

5-LO [4] = molecular target: T1, 5-LO; set-up: expressed in transfected cells; method as in PMID 19152786; conditions: 10 μM; cited from earlier work

O=C(/C=C/c1ccccc1)OCCn1cc(COC(=O)/C=C/c2ccc(O)c(O)c2)nn1 [compound 4, reference compound]
IC50 [1]: 13.4 µM
5-LO inhibition in stimulated human PMNL (in words) (5-LO [2]): roughly equipotent with Zileuton
5-LO inhibition in whole HEK293 cells (in words) (5-LO [3]): not significantly different than the control
5-LO inhibition in whole cells (5-LO [4]): near complete 5-LO inhibition
